Data as given in the supplement of paper PMC10307832.

What was measured:
Assay in all cases: relative viability (nuclei count vs DMSO), 5 days (fraction); higher = more cells survive
Avagacestat + Vorinostat = compound: NC(=O)[C@@H](CCC(F)(F)F)N(Cc1ccc(-c2ncon2)cc1F)S(=O)(=O)c1ccc(Cl)cc1 [Avagacestat] + O=C(CCCCCCC(=O)Nc1ccccc1)NO [Vorinostat] (partner 1 µM)
In short: (§1)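 Values are medians from duplicate plates. Each reflects relative viability, defined as the nuclei count of treated wells over that of vehicle wells. Lung cancer cell lines in 1536-well plates were pin-tool dosed one day after seeding with one drug alone or with a fixed anchor-drug dose plus five library-drug doses (not always all listed) in √10 steps, then fixed, stained and imaged at 4× after 5 days.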

Avagacestat + Dasatinib = compound: NC(=O)[C@@H](CCC(F)(F)F)N(Cc1ccc(-c2ncon2)cc1F)S(=O)(=O)c1ccc(Cl)cc1 [Avagacestat] + Cc1nc(Nc2ncc(C(=O)Nc3c(C)cccc3Cl)s2)cc(N2CCN(CCO)CC2)n1 [Dasatinib] (partner 0.075 µM)
In short: as §1

Avagacestat + Pemetrexed = compound: NC(=O)[C@@H](CCC(F)(F)F)N(Cc1ccc(-c2ncon2)cc1F)S(=O)(=O)c1ccc(Cl)cc1 [Avagacestat] + Nc1nc2[nH]cc(CCc3ccc(C(=O)N[C@@H](CCC(=O)O)C(=O)O)cc3)c2c(=O)[nH]1 [Pemetrexed] (partner 0.2 µM)
In short: as §1

[1] = compound: NC(=O)[C@@H](CCC(F)(F)F)N(Cc1ccc(-c2ncon2)cc1F)S(=O)(=O)c1ccc(Cl)cc1 [Avagacestat] + CC(=O)c1c(C)c2cnc(Nc3ccc(N4CCNCC4)cn3)nc2n(C2CCCC2)c1=O [Palbociclib] (partner 0.5 µM)
In short: as §1

Cell Line	relative viability (Avagacestat + Vorinostat; first compound 0.08 µM)	relative viability (Avagacestat + Vorinostat; first compound 0.253 µM)	relative viability (Avagacestat + Vorinostat; first compound 0.8 µM)	relative viability (Avagacestat + Vorinostat; first compound 2.53 µM)	relative viability (Avagacestat + Vorinostat; first compound 8 µM)	relative viability (Avagacestat + Dasatinib; first compound 0.08 µM)	relative viability (Avagacestat + Dasatinib; first compound 0.253 µM)	relative viability (Avagacestat + Dasatinib; first compound 0.8 µM)	relative viability (Avagacestat + Dasatinib; first compound 2.53 µM)	relative viability (Avagacestat + Dasatinib; first compound 8 µM)	relative viability (Avagacestat + Pemetrexed; first compound 0.08 µM)	relative viability (Avagacestat + Pemetrexed; first compound 0.253 µM)	relative viability (Avagacestat + Pemetrexed; first compound 0.8 µM)	relative viability (Avagacestat + Pemetrexed; first compound 2.53 µM)	relative viability (Avagacestat + Pemetrexed; first compound 8 µM)	relative viability ([1]; first compound 0.08 µM)	relative viability ([1]; first compound 0.253 µM)	relative viability ([1]; first compound 0.8 µM)	relative viability ([1]; first compound 2.53 µM)	relative viability ([1]; first compound 8 µM)
201T	1.01	1.03	0.925	0.857	0.86	0.668	0.599	0.565	0.586	0.608	0.314	0.352	0.351	0.301	0.335	0.361	0.307	0.382	0.331	0.352
A-427	0.958	0.945	1.03	0.946	0.952	0.785	0.859	0.755	0.935	0.649	1.07	1.09	1.22	1.04	1.07	0.506	0.517	0.516	0.539	0.544
ABC-1	1.22	1.14	1.71	1.15	1.02	0.648	0.644	0.644	0.725	0.59						0.846	0.542	0.67	0.654	0.522
BEN	0.589	0.653	0.579	0.526	0.588	0.382	0.325	0.389	0.37	0.326	0.879	0.897	0.851	0.904	0.807	0.466	0.456	0.502	0.513	0.482
CAL-12T	0.918	1.1	0.796	0.729	0.798	0.376	0.414	0.418	0.386	0.253	1.7	1.49	1.67	1.42	1.25	0.535	0.384	0.474	0.478	0.5
COR-L23	0.474	0.457	0.484	0.366	0.332	0.507	0.471	0.781	0.457	0.359	0.178	0.197	0.207	0.214	0.201	0.283	0.266	0.284	0.276	0.217
COR-L 105	1.08	0.891	0.87	0.792	0.884	0.281	0.307	0.345	0.247	0.279	1.2	1.21	1.12	0.983	1.02	0.435	0.353	0.429	0.391	0.4
ChaGo-K-1	0.783	0.874	0.79	0.755	0.692	0.616	0.641	0.628	0.551	0.608	0.275	0.271	0.265	0.266	0.267	1.05	1.01	0.933	0.887	0.798
EKVX	0.826	0.783	0.904	0.75	0.68	0.621	0.491	0.512	0.473	0.382	0.5	0.462	0.529	0.439	0.373	0.392	0.374	0.405	0.365	0.293
EMC-BAC-2	0.662	0.581	0.803	0.535	0.51	0.342	0.298	0.301	0.292	0.308	0.52	0.595	0.634	0.557	0.544	0.539	0.577	0.556	0.52	0.543
EPLC-272H	0.413	0.318	0.539	0.367	0.321	0.328	0.339	0.289	0.348	0.266	0.322	0.429	0.318	0.31	0.267	0.368	0.344	0.327	0.32	0.291
H3255	0.825	0.89	1.03	0.861	0.7	0.362	0.347	0.57	0.379	0.313	0.57	0.622	0.591	0.552	0.557	0.312	0.361	0.331	0.373	0.401
HARA	0.572	0.551	0.524	0.716	0.549	0.234	0.254	0.228	0.262	0.239	0.227	0.203	0.226	0.257	0.244	0.26	0.237	0.248	0.263	0.24
HCC-15	0.976	1.03	0.979	0.796	0.818	0.685	0.642	0.652	0.608	0.539	0.227	0.22	0.232	0.212	0.194	0.906	1.01	0.78	0.68	0.694
HCC-44	1.09	1.14	1.19	1.07	1.21						0.733	0.68	0.706	0.66	0.639	0.976	0.997	0.983	1.04	1.01
HCC-78	0.499	0.458	0.416	0.391	0.351	0.452	0.273	0.343	0.327	0.331	0.901	0.976	0.933	0.883	0.851	0.493	0.488	0.511	0.478	0.441
HCC-366	0.472	0.426	0.437	0.31	0.385	0.842	0.981	0.676	0.544	0.601	0.199	0.195	0.191	0.161	0.142	0.355	0.34	0.465	0.332	0.333
HCC-827	0.75	0.849	0.855	0.946	0.832	0.313	0.277	0.226	0.184	0.244	0.304	0.271	0.296	0.221	0.257	0.468	0.478	0.503	0.442	0.465

Cell Line	relative viability (Avagacestat + Vorinostat; first compound 0.08 µM)	relative viability (Avagacestat + Vorinostat; first compound 0.253 µM)	relative viability (Avagacestat + Vorinostat; first compound 0.8 µM)	relative viability (Avagacestat + Vorinostat; first compound 2.53 µM)	relative viability (Avagacestat + Vorinostat; first compound 8 µM)	relative viability (Avagacestat + Dasatinib; first compound 0.08 µM)	relative viability (Avagacestat + Dasatinib; first compound 0.253 µM)	relative viability (Avagacestat + Dasatinib; first compound 0.8 µM)	relative viability (Avagacestat + Dasatinib; first compound 2.53 µM)	relative viability (Avagacestat + Dasatinib; first compound 8 µM)	relative viability (Avagacestat + Pemetrexed; first compound 0.08 µM)	relative viability (Avagacestat + Pemetrexed; first compound 0.253 µM)	relative viability (Avagacestat + Pemetrexed; first compound 0.8 µM)	relative viability (Avagacestat + Pemetrexed; first compound 2.53 µM)	relative viability (Avagacestat + Pemetrexed; first compound 8 µM)	relative viability ([1]; first compound 0.08 µM)	relative viability ([1]; first compound 0.253 µM)	relative viability ([1]; first compound 0.8 µM)	relative viability ([1]; first compound 2.53 µM)	relative viability ([1]; first compound 8 µM)
HOP-62	0.822	0.667	0.65	0.588	0.564	0.701	0.63	0.626	0.502	0.484	0.344	0.359	0.329	0.312	0.29	0.461	0.482	0.412	0.458	0.366
IA-LM	1.56	1.59	1.51	0.957	0.992															
LC-2-ad	0.73	0.847	0.74	0.654	0.595	0.558	0.489	0.646	0.447	0.343	0.286	0.276	0.264	0.263	0.273	0.483	0.472	0.529	0.439	0.381
LCLC-97TM1	1.01	0.847	0.862	0.838	0.57	0.945	0.86	0.757	0.866	0.706	0.177	0.177	0.159	0.166	0.146	0.294	0.264	0.312	0.185	0.206
LCLC-103H	0.807	0.759	0.846	0.864	0.673	0.456	0.46	0.508	0.368	0.678	0.448	0.412	0.433	0.456	0.486	0.54	0.444	0.473	0.501	0.446
LK-2	0.196	0.353	0.265		0.22	0.26	0.224	0.247	0.271	0.267	0.272	0.294	0.314	0.251	0.264	0.949	0.818	0.64	0.542	0.824
LOU-NH91	1	0.878	1.03	0.798	0.885	0.612	0.509	0.618	0.443	0.493	0.389	0.344	0.431	0.427	0.336	0.533	0.482	0.574	0.52	0.525
LU99A	0.611	0.541	0.624	0.468	0.481	0.483	0.542	0.455	0.444	0.471	0.25	0.232	0.182	0.226	0.155	0.407	0.429	0.472	0.414	0.366
LXF-289	0.954	0.884	0.791	0.921	0.86	0.196	0.183	0.168	0.191	0.152	0.986	0.947	0.936	0.905	0.799	0.624	0.613	0.612	0.578	0.582
NCI-H23	0.921	0.66	0.665	0.69	0.592	0.859	0.875	0.937	0.733	0.912	0.966	0.863	0.905	0.801	0.31	0.515	0.566	0.505	0.44	0.572
NCI-H322M	0.811	0.779	0.855	0.821	0.777	0.281	0.242	0.247	0.251	0.257	0.621	0.619	0.632	0.608	0.569	0.456	0.442	0.455	0.419	0.531
NCI-H358	0.911	0.762	0.733	0.557	0.679	0.163	0.159	0.164	0.155	0.148	0.168	0.197	0.18	0.172	0.168	0.148	0.137	0.126	0.143	0.132
NCI-H596	0.591	0.643	0.609	0.588	0.627	0.592	0.651	0.654	0.451	0.648	0.594	0.56	0.578	0.528	0.503					
NCI-H727	1.27	1.19	1.21	1.18	1.19	0.35	0.355	0.5	0.369	0.41						0.578	0.577	0.606	0.684	0.672
NCI-H1563						0.53	0.455	0.484	0.453	0.442	0.811	0.664	0.82	0.711	0.683					
NCI-H1648	0.512	0.374	0.31	0.35	0.276						0.572	0.505	0.451	0.467	0.505	0.237	0.271	0.289	0.256	0.284
NCI-H1792						1.33		0.666		0.706	1.54	1.08	1.28	0.818	0.451	0.817		0.751		0.612
